Laboratory results reported in PMC5431342, “Discovery of an enzyme and substrate selective inhibitor of ADAM10 using an exosite-binding glycosylated substrate” (Scientific Reports, 2016).
Where two headings read alike, the source gives them in different places. One block for each molecule: values may come before it.

Key:
ADAM10 [1] = biological target: T1, ADAM10 (Homo sapiens, UniProt O14672); assay: ADAM10 glycosylated substrate uHTS/HTS assay; type: biochemical
T1 construct: purchased R&D Systems 936-AD
T1 sequence (O14672 214-748): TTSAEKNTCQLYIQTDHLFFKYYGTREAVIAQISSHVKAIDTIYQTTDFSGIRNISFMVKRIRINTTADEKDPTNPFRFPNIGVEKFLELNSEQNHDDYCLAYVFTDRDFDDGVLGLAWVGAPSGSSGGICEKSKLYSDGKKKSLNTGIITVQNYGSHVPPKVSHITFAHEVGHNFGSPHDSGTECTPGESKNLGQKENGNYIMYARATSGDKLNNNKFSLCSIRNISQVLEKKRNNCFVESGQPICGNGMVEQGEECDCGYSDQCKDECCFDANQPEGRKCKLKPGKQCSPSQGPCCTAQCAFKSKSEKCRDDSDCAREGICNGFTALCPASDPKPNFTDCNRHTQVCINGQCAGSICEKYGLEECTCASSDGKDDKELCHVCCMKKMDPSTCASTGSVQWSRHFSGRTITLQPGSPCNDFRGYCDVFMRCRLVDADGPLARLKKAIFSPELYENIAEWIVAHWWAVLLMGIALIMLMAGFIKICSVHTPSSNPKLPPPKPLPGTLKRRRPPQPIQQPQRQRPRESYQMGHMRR
Experimental: To enable uHTS both ADAM10 and ADAM17 glycosylated substrate[13] (Fig. 1A) assays were miniaturized to 1536 well plate format. The workflow of the assays in 384 well plate format was recaptured in 1536 well plate format and assay volume was scaled down to 5 µL.
Both assays followed the same general protocol. […] Reactions were incubated at RT for 2 h, after which the fluorescence was measured using Perkin Elmer Viewlux multimode microplate imager (λexcitation = 360 nm, λemission = 460 nm). Final concentration of test compounds in assays was 7.0 µM.
(§1) The miniaturized 1536-well plate format ADAM10 and ADAM17 assays were used to screen a collection of ≈370,000 compounds (MLSMR library, provided by the NIH) on the automated Kalypsys/GNF platform at the Scripps Research Institute Molecular Screening Center (SRIMSC, Jupiter, FL. More details at http://hts.florida.scripps.edu/). […] Both uHTS campaigns were run separately but in a similar manner. Briefly, the first step was the primary screen of all MLSMR’s test compounds as singlicate against the ADAM10 or ADAM17 target at a final concentration of 7.0 μM. Next, compounds selected as primary hits were cherry-picked and retested in triplicate against the primary screen target and its anti-target (ADAM17 for the ADAM10 screening effort, and vice-versa) at the same final concentration of 7.0 μM. […] All data generated during this effort were uploaded to the SRIMSC’s institutional screening database (Assay Explorer, Symyx). Sample to background (S/B) ratios, as well as Z and Z′ values were calculated on a per-plate basis as described before. Curve fitting and resulting IC50 determinations were performed as previously reported.

ADAM17 [2] = biological target: T2, ADAM17 (Homo sapiens, UniProt P78536); assay: ADAM17 glycosylated substrate uHTS/HTS assay; type: biochemical; conditions: for IC50: original uHTS dose response, 10-point 1:3 dilutions starting at 70 µM
T2 construct: purchased R&D Systems 930-ADB
T2 sequence (P78536 215-824): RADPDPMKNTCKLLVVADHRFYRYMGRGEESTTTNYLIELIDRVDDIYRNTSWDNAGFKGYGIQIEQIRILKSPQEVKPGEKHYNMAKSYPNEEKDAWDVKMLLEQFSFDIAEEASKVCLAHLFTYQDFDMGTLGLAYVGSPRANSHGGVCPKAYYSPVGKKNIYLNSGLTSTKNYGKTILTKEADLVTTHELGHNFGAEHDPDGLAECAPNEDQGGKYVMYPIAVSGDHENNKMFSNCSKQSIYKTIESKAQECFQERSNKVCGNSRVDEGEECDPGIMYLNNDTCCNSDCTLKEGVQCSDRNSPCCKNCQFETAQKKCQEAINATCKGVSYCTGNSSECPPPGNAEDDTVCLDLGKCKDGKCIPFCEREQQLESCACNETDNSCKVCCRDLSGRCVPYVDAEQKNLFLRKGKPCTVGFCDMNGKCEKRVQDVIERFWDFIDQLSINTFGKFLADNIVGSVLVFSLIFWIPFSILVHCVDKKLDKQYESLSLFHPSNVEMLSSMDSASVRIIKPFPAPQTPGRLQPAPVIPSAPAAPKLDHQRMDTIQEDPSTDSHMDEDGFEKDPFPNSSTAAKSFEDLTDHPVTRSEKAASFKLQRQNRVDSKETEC
Experimental: Both assays followed the same general protocol. […] After 30 min incubation at RT, the reactions were started by addition of 2.5 µL of 2x solutions of glycosylated substrate (20 µM). Reactions were incubated at RT for 2 h, after which the fluorescence was measured using Perkin Elmer Viewlux multimode microplate imager (λexcitation = 360 nm, λemission = 460 nm). Final concentration of test compounds in assays was 7.0 µM.
as §1

ADAM10 [3] = biological target: T1, ADAM10; assay: ADAM10 non-glycosylated substrate assay; type: biochemical; conditions: ADAM10
From the text: Additionally, we synthesized a non-glycosylated version, E(Edans)-[…]-K(Dabcyl), to be used as a control in the follow-up studies.

ADAM10 [4] = biological target: T1, ADAM10; assay: Dual inhibition studies of ADAM10 with AHA and CID 3117694; type: biochemical
Experimental: 5 µL of 4X ADAM10 solution ([…]) were added to solid bottom black 384 low volume plates (Nunc, cat# 264705). […] 5 µL of 4X CID 3117694 were added to the wells containing AHA such that the final assay concentrations of CID 3117694 were 0.275, 0.55, 1.1, 2.2, and 4.4 µM. Enzyme-inhibitor mixtures were incubated for 1 h at RT after which 5 µL of 4X glycosylated substrate was added to all wells. Reactions were incubated at RT for 2 h, after which the fluorescence was measured using the Synergy H4 multimode microplate reader (λexcitation = 360 nm, λemission = 460 nm). IC50 values were calculated by fitting normalized data to sigmoidal log vs. response equation utilizing non-linear regression analysis from GraphPad Prizm 6.
Multi-drug combination dose-effect analysis using Compusyn software (ComboSyn, Inc. 599 Mill Run, Paramus, NJ, 07653, USA) was utilized to determine whether inhibitor combinations produced synergy, antagonism, or no effect as compared to a single inhibitor. Combination Index values were obtained using Combination Index (CI) Equation of Chou-Talalay[56] in Compusyn software (ComboSyn, Inc. 599 Mill Run, Paramus, NJ, 07653, USA) and a normalized isobologram was constructed: (D)1/(Dx)1+(D)2/(Dx)2=CI
In the denominators, (Dx)1 is the doses of Drug1 alone that inhibits x% while (Dx)2 is the dose of Drug2 alone that inhibits x%. […] Effect was determined according to the Table 1 (from ref. [57]).

[5] = tested on: IL-8-induced migration of primary human neutrophils; assay: Neutrophil migration assay; type: cell-based
Experimental: (§2) For PBMC or primary human neutrophil chemotaxis assays, transwells with 8 or 5 µm pores were filled with 100 µL of cell suspension (1 × 10^6 cells in 100 µL DMEM + 0.2% BSA). Lower wells were filled with stimulus solution (3 nM CCL2 or 10 µg/mL CXCL8 (IL8) in assay buffer (RPMI + 0.2% BSA). After incubation of PBMCs for 2 h or neutrophils for 45 min, migrated cells were quantified in the lower well. For inhibitor studies, cells were pre-incubated in migration medium for 30 min and subsequently subjected to the migration experiment. Migrated neutrophils or PBMCs were quantified by measurement of endogenous glucuronidase activity as described.

[6] = tested on: shedding of CXCL16 in A549 cells; assay: CXCL16 shedding inhibition (ELISA); type: cell-based, human; conditions: TNF/IFN stimulation 24 h
Experimental: (§3) A549 cells were seeded in 12-well plates and grown to confluency in DMEM supplemented with 10% FBS and 1% P/S. Subsequently, cells were starved serum-free for 4 h, incubated for 1 h with GI 254023X or CID 3117694 (concentrations as indicated) or DMSO (vehicle, 0.1%) and afterwards stimulated with 10 ng/mL TNF and 10 ng/mL IFN for 24 h or left untreated in the presence of inhibitors or DMSO. Supernatants (500 µL) were harvested and centrifuged for 10 min at 16100 g and 4 °C. […] of CXCL16 were measured using the DuoSet human CXCL16 Elisa Kit (R&D systems, Wiesbaden, Germany). Samples were stored at −80 °C and diluted 2-fold after careful thawing. The standard ranged from 0 to 25,000 pg/mL with a detection limit of 391 pg/mL. For detection of soluble syndecan-4, conditioned media (200 µL) were 2-fold diluted in blotting buffer (0.15 M NaCl buffered to pH 4.5 with 50 mM sodium acetate, and with 0.1% Triton X-100), and applied to cationic polyvinylidene difluoride-based membranes (Hybond-N, Amersham Biosciences, Freiburg, Germany) under vacuum in a dot blot apparatus (Amersham Biosciences). The membranes were blocked for 1 h with PBS-T supplemented with 1% bovine serum albumin and 3% milk powder. Human syndecan-4 was detected by incubating membranes overnight at 4 °C with mouse anti-syndecan-4 mAb (0.6 µg/mL) followed by incubation with POD-coupled goat anti-mouse Ab (27 ng/mL in PBS, Jackson Immunoresearch). Chemiluminescence was recorded and quantified using the luminescent image analyzer LAS3000 substrate after addition of ECL advanced substrate (Amersham Biosciences).

[7] = tested on: CCL2-induced migration of peripheral blood mononuclear cells (PBMC); assay: PBMC migration assay; type: cell-based
Experimental: as §2

[8] = tested on: syndecan-4 shedding in A549 cells; assay: Syndecan-4 shedding inhibition (dot blot); type: cell-based, human; conditions: TNF/IFN 24 h
Experimental: as §3, with “For detection of soluble syndecan-4, conditioned media (200 µL) were 2-fold diluted in blotting buffer (0.15 M NaCl buffered to pH 4.5 with 50 mM sodium acetate, and with 0.1% Triton X-100), and applied to cationic polyvinylidene difluoride-based membranes (Hybond-N, Amersham Biosciences, Freiburg, Germany) under vacuum in a dot blot apparatus (Amersham Biosciences). The membranes were blocked for 1 h with PBS-T supplemented with 1% bovine serum albumin and 3% milk powder.” left out

ADAM17 [9] = biological target: T2, ADAM17; conditions: cited from earlier work
ADAM10 [10] = biological target: T1, ADAM10; conditions: cited from earlier work
[11] = original uHTS dose response, 10-point 1:3 dilutions starting at 70 µM

IC50 (ADAM10 [1]; [11]): > 70 µM
activity against ADAM17 of reordered powder versus original testing (ADAM17 [2]; reordered powder, 10-point 1:3 dilutions starting at 100 µM): significantly lower activity
Molecule: O=C(O)CCC(=O)c1c[nH]c2ccccc12 [CID 730037]

potency for hydrolysis of glycosylated versus non-glycosylated substrate (ADAM10 [3]): same potency
IC50 (ADAM10 [1]; 384 well plate format): 0.033 µM
IC50 (ADAM10 [1]; 1536 well plate format): 0.02 µM
Molecule: CNC(=O)[C@@H](NC(=O)[C@H](CC(C)C)[C@H](O)C(=O)NO)C(C)(C)C [marimastat, reference compound]

IC50 (ADAM10 [1]; [11]): > 70 µM
IC50 (ADAM17 [2]): 7.8 µM
Molecule: CCOc1ccc(NC(=O)CC2SC(=O)N(c3ccccc3)C2=O)cc1 (stereo not shown) [CID 3153587]

IC50 (ADAM10 [4]; AHA alone, read-out: AHA IC50, ADAM10-mediated hydrolysis of glycosylated substrate): 1000 ± 50 µM
improvement in potency versus AHA alone (ADAM10 [4]; in the presence of 1.1 µM CID 31176944): 10 fold
improvement in potency versus AHA alone (ADAM10 [4]; in the presence of 4.4 µM CID 31176944): 100 fold
Molecule: CC(=O)NO [AHA, acetohydroxamic acid]

IC50 (ADAM10 [1]; [11]): 32 µM
IC50 (ADAM17 [2]): 3.2 µM
Molecule: O=C1NC(=O)C(Cc2ccc(Cl)cc2)(c2ccccc2)N1 (stereo not shown) [CID 236330]

Molecule: CNC(=O)[C@@H](NC(=O)[C@H](CCCc1ccccc1)[C@H](C)N(O)C=O)C(C)(C)C [GI 254023X, reference compound]
inhibition of neutrophil migration [5]: completely inhibited migration
inhibition of cytokine-inducible shedding of CXCL16 [6]: inhibited shedding
inhibition of PBMC migration [7]: completely inhibited migration
inhibition of syndecan-4 shedding [8]: inhibited shedding
IC50 (ADAM17 [9]): 0.541 µM
IC50 (ADAM10 [10]): 0.0053 µM

Molecule: O=C(NO)[C@H]1C[C@H](OC(=O)N2CCCC2)CC[C@@H]1C(=O)N1CCC(c2ccccc2)CC1 [INCB8765]
IC50 (ADAM17 [9]): 2.04 µM
IC50 (ADAM10 [10]): 0.097 µM

B1: ADAM10 prodomain: Biozyme Inc.; competitive inhibitor of ADAM10 (protein)
chain: NPLNKYIRHYEGLSYNVDSLHQKHQRAKRAVSHEDQFLLLDFHAHGRQFNLRMKRDTSLFSDEFKVETSNKVLDYDTSHIYTGHIYGEEGSFSHGSVIDGRFEGFIKTRGGTFYIEPAERYIKDRILPFHSVIYHEDDINYPHKYGPQGGCADHSVFERMRKYQMTGVEEGARAHPEKHAASSGPELLRKK
modifications: tag omitted
IC50 (ADAM17 [9]): > 10 µM
IC50 (ADAM10 [10]): 0.048 µM
